Data as given in US11440913B2, “Aminoimidazopyridazines as kinase inhibitors” (BRISTOL-MYERS SQUIBB COMPANY, priority 2017, dated 2022).
Where a name gives a salt, the structure may show the parent alone. Read-outs that look alike come from different tables or passages of the source.

Assays:
[1] = biological target: His-GST-TVMV-hRIPK1(1-324) (Homo sapiens (Human), UniProt Q13546); assay: RIPK1 HTRF Binding Assay
Experimental: A solution was prepared containing 0.2 nM Anti GST-Tb (Cisbio, 61GSTTLB), 90.6 nM probe and 1 nM His-GST-TVMV-hRIPK1(1-324) in FRET Buffer (20 mM HEPES, 10 mM MgCl2, 0.015% Brij-35, 4 mM DTT, 0.05 mg/mL BSA). Using Formulatrix Tempest, the detection antibody/enzyme/probe solution ([…]) was dispensed into wells of a 1536 plate (Black Low Binding Polystyrene 1536 Plate (Corning, 3724)) containing 10 nL of compounds of interest at appropriate concentration in DMSO. The plate was incubated at rt for 1 h. FRET was measured using the EnVision plate reader (Excitation: 340 nm, Emission: 520 nm/[…]). Total signal (0% inhibition) was calculated from wells containing 10 nL DMSO only.
The coding region of human RIPK1(1-324) flanked by NdeI site at 5′ end and stop codon TGA and XhoI site at 3′ end was codon optimized and gene synthesized at GenScript USA Inc. (Piscataway, N.J.) and subcloned into a modified pFastBacl vector (Invitrogen, Carlsbad, Calif.) with N-terminal His-GST-TVMV tag, to generate His-GST-TVMV-hRIPK1(1-324)-pFB. The fidelity of the synthetic fragment was confirmed by sequencing.

[2] = system: MLKL phosphorylation in HT29-L23 human colorectal adenocarcinoma cells; assay: MLKL Phosphorylation High-Content Assay; type: cell-based; conditions: 6 h, necroptosis induced with TNFα, SMAC mimetic and Z-VAD, read-out: pMLKL (IC50)
Experimental: MLKL Phosphorylation High-Content Assay
HT29-L23 human colorectal adenocarcinoma cells were maintained in RPMI 1640 medium containing 10% heat-inactivated FBS, 1% Pennicilin-Streptomycin and 10 mM HEPES. Cells were seeded at 2,000 cells/well in 384 w tissue culture-treated microplates (Greiner #781090-3B) and incubated at 37° C. (5% CO2/95% O2) for two days. On the day of assay, the cells were treated with test compounds at final concentrations of 6.25 to 0.106 μM for 30 min at 37° C. (5% CO2/95% O2). Necroptopsis was induced using a mixture of human TNFα (35 ng/mL) (Peprotech #300-01A), SMAC mimetic (from US 2015/0322111 A1) (700 nM) and Z-VAD (140 nM) (BD pharmingen #51-6936). Following six hours incubation at 37° C. (5% CO2/95% O2), the cells were fixed with 4% formaldedye (ACROS 11969-0010) for 15 min at room temperature and then permeabilized with phoshpate buffered saline (PBS) containing 0.2% Triton-X-100 for 10 min. MLKL phosporylation was detected using anti-MLKL (phospho S358) antibody (Abcam # ab187091) (1:1000 dilution in Blocking Buffer [PBS supplemented with 0.1% BSA]) with overnight incubation at 4° C. After washing three times in PBS, goat anti-rabbit Alexa-488 (1:1000 dilution) (Life Technologies, A11008) and Hoechst 33342 (Life Technologies, H3570) (1:2000 dilution) in Blocking Buffer were added for 1 h at room temperature. Following another three cycles of washes in PBS, the microplates were sealed, and cellular images were acquired in the Cellomics ArrayScan VTI high-content imager equipped with an X1 camera. Fluorescent images were taken using a 10× objective and the 386-23 BGRFRN_BGRFRN and 485-20 BGRFRN_BGRFRN filter sets, for nuclei and MLKL phosphorylation, respectively. The image sets were analyzed using the Compartmental Analysis Bioapplication software (Cellomics). The level of MLKL phosphorylation was quantified as MEAN_CircRingAvgIntenRatio. […] The IC50 value was defined as the concentration of compound that produces 50% of the maximal inhibition. The data were fitted using the 4-parameter logistic equation to calculate the IC50 and Ymax values.

[3] = HTRF binding, 1 h at rt, read-out: RIPK1 (IC50)

Sequence of His-GST-TVMV-hRIPK1(1-324) (Q13546 1-324): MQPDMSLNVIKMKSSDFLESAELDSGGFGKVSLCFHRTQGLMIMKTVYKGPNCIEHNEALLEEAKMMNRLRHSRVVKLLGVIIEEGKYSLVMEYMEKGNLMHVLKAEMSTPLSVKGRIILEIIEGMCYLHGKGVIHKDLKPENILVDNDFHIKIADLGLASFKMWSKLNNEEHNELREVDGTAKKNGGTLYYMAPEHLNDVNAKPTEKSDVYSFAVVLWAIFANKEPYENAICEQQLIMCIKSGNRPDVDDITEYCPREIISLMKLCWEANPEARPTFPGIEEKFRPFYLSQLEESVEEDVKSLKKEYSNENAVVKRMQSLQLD

COc1ncc(-c2ccc3nc(NC(C)=O)cn3n2)cc1C(=O)NCc1cc(C(F)(F)F)ccc1Cl [Example 147, N-{[2-chloro-5-(trifluoromethyl)phenyl]methyl}-5-{2-acetamidoimidazo[1,2-b]pyridazin-6-yl}-2-methoxypyridine-3-carboxamide]
IC50 [1, 3]: 95 nM
IC50 ([2]; Homo sapiens): 37 nM

COc1nc(C)c(-c2ccc3nc(NC(C)=O)cn3n2)cc1C(=O)NCc1c(F)cc(F)cc1OCC1CC1 [Example 298, N-{[2-(cyclopropylmethoxy)-4,6-difluorophenyl]methyl}-5-{2-acetamidoimidazo[1,2-b]pyridazin-6-yl}-2-methoxy-6-methylpyridine-3-carboxamide]
IC50 [1, 3]: 43 nM
IC50 ([2]; Homo sapiens): 79 nM

N-{[3,5-difluoro-2-(oxan-3- yloxy)phenyl]methyl}-5-{2- acetamidoimidazo[1,2-b]pyridazin- 6-yl}-2-(deutero)methoxy-6- methylpyridine-3-carboxamide [Example 170]
IC50 [1, 3]: 4 nM
IC50 [2]: 3 nM

CC(=O)Nc1cn2nc(-c3cncc(NS(=O)(=O)c4ccc(F)cc4)c3)ccc2n1 [Example 11 in US2009/0163489, reference compound]
IC50 ([1]; comparison compound of US2009/0163489, read-out: IC50 in the RIPK1 assay): 11000 nM

[2H]C([2H])([2H])Oc1nc(C)c(-c2ccc3nc(NC(C)=O)cn3n2)cc1C(=O)NCc1cc(F)cc(F)c1OC1CCOC(C)C1 (stereo not drawn) [Example 172, N-({3,5-difluoro-2-[(2-methyloxan-4-yl)oxy]phenyl}methyl)-5-{2-acetamidoimidazo[1,2-b]pyridazin-6-yl}-2-(deutero)methoxy-6-methylpyridine-3-carboxamide]
IC50 [1, 3]: 15 nM
IC50 ([2]; Homo sapiens): 16 nM

CC(=O)Nc1cn2nc(-c3ccc(C)c(C(=O)NCC(O)COc4ccccc4)c3)ccc2n1 (stereo not drawn) [Example 400, 5-{2-acetamidoimidazo [1,2-b]pyridazin-6-yl}-N-(2-hydroxy-3-phenoxypropyl)-2-methylbenzamide]
IC50 [1, 3]: 11 nM
IC50 ([2]; Homo sapiens): 11 nM

COc1ccc(-c2ccc3nc(NC(C)=O)cn3n2)cc1C(=O)NCc1cc(OC(F)(F)F)ccc1F [Example 418, 5-{2-acetamidoimidazo [1,2-b]pyridazin-6-yl}-N-{[2-fluoro-5-(trifluoromethoxy)phenyl]methyl}-2-methoxybenzamide]
IC50 ([2]; Homo sapiens): 26 nM

Cc1ncc(-c2ccc3nc(NC(=O)CN4CCOCC4)cn3n2)cc1C(=O)NCC[C@H](O)c1ccc(Cl)cc1 [Example 346, N-[(3S)-3-(4-chlorophenyl)-3-hydroxypropyl]-2-methyl-5-{2-[2-(morpholin-4-yl)acetamido]imidazo[1,2-b]pyridazin-6-yl}pyridine-3-carboxamide]
IC50 ([2]; Homo sapiens): 82 nM

Cc1ncc(-c2ccc3nc(NC(=O)CN4CCOCC4)cn3n2)cc1C(=O)NCC[C@@H](O)c1ccc(Cl)cc1 [Example 345, N-[(3R)-3-(4-chlorophenyl)-3-hydroxypropyl]-2-methyl-5-{2-[2-(morpholin-4-yl)acetamido]imidazo[1,2-b]pyridazin-6-yl}pyridine-3-carboxamide]
IC50 ([2]; Homo sapiens): 44 nM

CC(=O)Nc1cn2nc(-c3cc(C(=O)NCc4cc(OC(F)(F)F)ccc4F)c(Cl)cc3C)ccc2n1 [Example 393, 2-chloro-5-{2-acetamidoimidazo [1,2-b]pyridazin-6-yl}-N-{[2-fluoro-5-(trifluoromethoxy)phenyl]methyl}-4-methylbenzamide]
IC50 ([2]; Homo sapiens): 8 nM

Cc1ncc(-c2ccc3nc(NC(=O)CN4CCOCC4)cn3n2)cc1C(=O)N[C@H](C)c1cc(OC(F)(F)F)ccc1F [Example 337, N-[(1R)-1-[2-fluoro-5-(trifluoromethoxy)-phenyl]ethyl]-2-methyl-5-{2-[2-(morpholin-4-yl)acetamido]imidazo[1,2-b]pyridazin-6-yl}pyridine-3-carboxamide]
IC50 ([2]; Homo sapiens): 11 nM

CC(=O)Nc1cn2nc(-c3cc(C(=O)NCC[C@@H](O)c4ccc(Cl)cc4)c(C)cc3F)ccc2n1 [Example 415, N-[(3R)-3-(4-chlorophenyl)-3-hydroxypropyl]-5-{2-acetamidoimidazo[1,2-b]pyridazin-6-yl}-4-fluoro-2-methylbenzamide]
IC50 ([2]; Homo sapiens): 4 nM

COc1ncc(-c2ccc3nc(NC(C)=O)cn3n2)cc1C(=O)NCc1ncccc1OCC(F)(F)F [Example 101, 5-{2-acetamidoimidazo[1,2-b]pyridazin-6-yl}-2-methoxy-N-{[3-(2,2,2-trifluoroethoxy)pyridin-2-yl]methyl}pyridine-3-carboxamide, 2 TFA]
IC50 [2]: 248 nM

CC(=O)Nc1cn2nc(-c3cc(C(=O)NCc4cc(OC(F)(F)F)ccc4F)ccc3C)ccc2n1 [Example 433, 3-{2-acetamidoimidazo [1,2-b]pyridazin-6-yl}-N-{[2-fluoro-5-(trifluoromethoxy)phenyl]methyl}-4-methylbenzamide]
IC50 ([2]; Homo sapiens): 34 nM

CC(=O)Nc1cn2nc(-c3cc(F)c(C)c(C(=O)NCc4cc(-c5cnn(C)c5)ccc4F)c3)ccc2n1 [Example 358, 5-(2-acetamidoimidazo[1,2-b]pyridazin-6-yl)-3-fluoro-N-(2-fluoro-5-(1-methyl-1H-pyrazol-4-yl)benzyl)-2-methylbenzamide]
IC50 ([2]; Homo sapiens): 49 nM

CC(=O)Nc1cn2nc(-c3c(F)c(F)cc(C(=O)NCc4cc(C(F)(F)F)ccc4F)c3F)ccc2n1 [Example 369, 3-{2-acetamidoimidazo [1,2-b]pyridazin-6-yl}-2,4,5-trifluoro-N-{[2-fluoro-5-(trifluoromethyl)phenyl]methyl} benzamide]
IC50 ([2]; Homo sapiens): 61 nM

CC(=O)Nc1cn2nc(-c3cc(C(=O)NCc4cccnc4OCC4CCC4)c(C)nc3C)ccc2n1 [Example 86, N-{[2-(cyclobutylmethoxy)pyridin-3-yl]methyl}-5-{2-acetamidoimidazo[1,2-b]pyridazin-6-yl}-2,6-dimethylpyridine-3-carboxamide]
IC50 [2]: 27 nM

CC(=O)Nc1cn2nc(-c3ccc(C)c(C(=O)Nc4cnn(Cc5ccccc5)c4)c3)ccc2n1 [Example 399, N-(1-benzyl-1H-pyrazol-4-yl)-5-{2-acetamidoimidazo [1,2-b]pyridazin-6-yl}-2-methylbenzamide]
IC50 ([2]; Homo sapiens): 5 nM

CC(=O)Nc1cn2nc(-c3c(F)ccc(C(=O)N[C@H](C)c4cc(C(F)(F)F)ccc4F)c3F)ccc2n1 [Example 423, 3-{2-acetamidoimidazo [1,2-b]pyridazin-6-yl}-2,4-difluoro-N-[(1R)-1-[2-fluoro-5-(trifluoromethyl)phenyl]ethyl] benzamide]
IC50 ([2]; Homo sapiens): 109 nM

COc1ccc(-c2ccc3nc(NC(C)=O)cn3n2)c(F)c1C(=O)NCC[C@@H](O)c1ccc(Cl)cc1 [Example 374, N-[(3R)-3-(4-chlorophenyl)-3-hydroxypropyl]-3-{2-acetamidoimidazo [1,2-b]pyridazin-6-yl}-2-fluoro-6-methoxybenzamide]
IC50 ([2]; Homo sapiens): 19 nM

COc1ncc(-c2ccc3nc(NC(C)=O)cn3n2)cc1C(=O)NCc1cc(F)cc(F)c1C(=O)N1CCC(F)(F)C1 [Example 324, N-{[2-(3,3-difluoropyrrolidine-1-carbonyl)-3,5-difluorophenyl]methyl}-5-{2-acetamidoimidazo[1,2-b]pyridazin-6-yl}-2-methoxypyridine-3-carboxamide]
IC50 ([2]; Homo sapiens): 3 nM

COc1ncc(-c2ccc3nc(NC(C)=O)cn3n2)cc1C(=O)NCc1cc(F)ccc1C(=O)N1CCC(F)(F)C1 [Example 323, N-{[2-(3,3-difluoropyrrolidine-1-carbonyl)-5-fluorophenyl]methyl}-5-{2-acetamidoimidazo[1,2-b]pyridazin-6-yl}-2-methoxypyridine-3-carboxamide]
IC50 ([2]; Homo sapiens): 9 nM
